Results on 20 compounds are retold here after US20150175599A1, “FAAH Inhibitors” (Ironwood Pharmaceuticals, Inc., priority 2010, published 2015).

Molecules are shown by their SMILES.

The target in this assay is T1, FAAH (Rattus norvegicus, UniProt P97612).
T1 construct: For the assay of FAAH activity in rat brain membrane (RBM) homogenates; tissue Charles River (animals); host or cells: rat whole brain, membrane fraction
T1 sequence (P97612 1-579): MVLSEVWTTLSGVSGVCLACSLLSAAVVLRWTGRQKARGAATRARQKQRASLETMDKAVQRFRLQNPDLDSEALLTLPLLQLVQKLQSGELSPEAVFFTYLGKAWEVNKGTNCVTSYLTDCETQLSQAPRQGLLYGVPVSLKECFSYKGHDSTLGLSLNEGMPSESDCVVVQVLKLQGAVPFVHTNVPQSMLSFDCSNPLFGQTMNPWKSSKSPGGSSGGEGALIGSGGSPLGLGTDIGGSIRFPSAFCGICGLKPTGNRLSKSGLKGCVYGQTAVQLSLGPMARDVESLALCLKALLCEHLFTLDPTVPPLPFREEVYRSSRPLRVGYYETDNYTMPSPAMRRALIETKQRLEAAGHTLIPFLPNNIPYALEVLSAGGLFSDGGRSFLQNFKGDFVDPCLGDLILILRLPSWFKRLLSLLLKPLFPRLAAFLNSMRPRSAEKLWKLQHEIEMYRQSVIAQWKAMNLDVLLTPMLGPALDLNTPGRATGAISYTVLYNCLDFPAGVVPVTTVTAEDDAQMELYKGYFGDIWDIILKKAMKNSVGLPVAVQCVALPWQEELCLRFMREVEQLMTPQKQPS
Briefly: FAAH inhibition, rat brain membrane homogenate assay. In kind it is biochemical. The conditions noted are these: rat brain homogenate; average activity; read-out: Rat Brain Extract FAAH IC50. The method, then:
Adult rats (Charles River CD strain, female, 200 g) were anaesthetized with isofluorane and rapidly decapitated. Each brain was quickly removed and chilled in tubes (3 brains per tube) on ice. About 25 mL of “homogenization buffer” (20 mM HEPES buffer, pH 7.0, with 1 mM MgCl2) was added to 15 to 20 g of brain. The brains were homogenized on ice for 1 minute using an Omni GLH homogenizer (Omni International, Marietta, Ga.). The homogenates were then transferred to three centrifuge tubes and centrifuged at 36,500 g for 20 minutes at 4° C. The supernatant was discarded and each pellet was re-suspended in 25 mL homogenization buffer. The re-suspended material was again centrifuged (36,500 g, 20 minutes at 4° C.). Pellets were combined by re-suspension in 10 mL of homogenization buffer and incubated in a 37° C. water bath for 15 minutes. The tubes were then placed on ice for 5 minutes followed by centrifugation at 36,500 g for 20 minutes at 4° C. The supernatant was discarded and the membrane pellets were then re-suspended in 40 mL of “re-suspension buffer” (50 mM Tris-HCl buffer, pH 7.4, containing 1 mM EDTA and 3 mM MgCl2). A Bradford Protein assay was performed to determine protein concentration. The protein was aliquotted into screw cap Cryo tubes each containing −400 μL, flash-frozen in liquid nitrogen and stored at −80° C. until used for the assay. A similar protocol was used to obtain brain membrane homogenates from mice
FAAH activity was assayed in the respective homogenates described herein (Rat brain, Mouse brain or Human brain) with certain of the exemplary compounds described above using a modification of the method of Omeir et al. (1995 Life Sci. 56:1999) and Fowler et al. (1997 J. Pharmacol. Exp. Ther. 283:729). For the assay of FAAH activity in rat brain membrane (RBM) homogenates, RBM homogenates (7 μg protein in 20 μL final volume of 10 mM Tris pH 6.5) were mixed with 180 μL of a mixture of the following: […] unlabelled anandamide (AEA), 0.03 Ci radio labeled anandamide [ethanolamine 1-^3H](40-60 Ci/mmol; product number ART-626, American Radiolabelled Chemicals, St. Louis, Mo.), 1 mg/mL Bovine Serum Albumin (fatty acid-free BSA, electrophoresis grade, Sigma, St. Louis, Mo.), 10 mM Tris-HCl (pH 6.5), and 1 mM EDTA in the presence and absence of test compounds (vehicle was DMSO at a final concentration of 1%) and incubated for 10 minutes at 37° C. Samples were placed on ice to terminate the reactions.
The ^3H-ethanolamine product and un-reacted ^3H-anandamide substrate were then separated by either: (1) using chloroform/methanol extraction or (2) passing the reaction mixture through a glass fiber filter containing activated charcoal. Samples were extracted with chloroform/methanol by adding 0.4 mL of chloroform/methanol (1:1 v/v), vigorously mixing the samples, and separating the aqueous and organic phases by centrifugation. Radioactivity (corresponding to FAAH-catalyzed breakdown of ^3H-anandamide) found in aliquots (0.2 mL) of the aqueous phase was determined by liquid scintillation counting with quench correction. IC50 values were determined as described by Jonsson et al. (2001 Br. J Pharmacol. 133:1263). Alternatively, reactions were purified using a modification of the solid-phase extraction method described by Wilson et al (2003 Anal. Biochem. 318: 270). This method was modified as follows: after reactions were incubated at 37° C. for 10 minutes and chilled on ice, the reaction mixtures were acidified by adding 10 μL of sodium phosphate solution[0.5M (pH 2.0)]. Next, 90 μL aliquots of the acidified reaction mixtures were applied to activated charcoal (that had been previously washed with methanol as described by Wilson et al. (supra)) containing 80 μL of water on top of a glass fiber filter, centrifuged, and the radioactivity in the eluate was counted as described previously by Wilson et al. (supra). […]
`CCN(CC)c1ccc2c(c1)c(C(=O)C(=O)Nc1ccnc(OC)c1)c(C)n2Cc1ccc(Cl)cc1` [Compound 24, 2-(1-(4-chlorobenzyl)-5-(diethylamino)-2-methyl-1H-indol-3-yl)-N-(2-methoxypyridin-4-yl)-2-oxoacetamide]: the IC50 was in the range of 100 to 1000 nM.

As for `CNCc1ccc2c(c1)c(C(=O)C(=O)Nc1ccnc(OC)c1)c(C)n2Cc1ccc(Cl)cc1` [Compound 25, 2-(1-(4-chlorobenzyl)-2-methyl-5-((methylamino)methyl)-1H-indol-3-yl)-N-(2-methoxypyridin-4-yl)-2-oxoacetamide], the 50% inhibitory concentration (IC50) fell in the range of 1000 to 10000 nM.

Consider `COc1cc(NC(=O)C(=O)c2c(C)n(Cc3ccc(Cl)cc3)c3ccc(CN(C)C)cc23)ccn1` [Compound 26, 2-(1-(4-chlorobenzyl)-5-((dimethylamino)methyl)-2-methyl-1H-indol-3-yl)-N-(2-methoxypyridin-4-yl)-2-oxoacetamide], for which the IC50 is 100 to 1000 nM.

Turning to `C=Cc1ccc2c(c1)c(C(=O)C(=O)Nc1ccnc(OC)c1)c(C)n2Cc1ccc(Cl)cc1` [Compound 27, 2-(1-(4-chlorobenzyl)-2-methyl-5-vinyl-1H-indol-3-yl)-N-(2-methoxypyridin-4-yl)-2-oxoacetamide], the IC50 is less than 100 nM.

Regarding `COc1cnc2c(c1)c(C(=O)C(=O)Nc1ccnc(OC)c1)c(C)n2Cc1ncc(Cl)cc1Cl` [Compound 29, 2-(1-((3,5-dichloropyridin-2-yl)methyl)-5-methoxy-2-methyl-1H-pyrrolo[2,3-b]pyridin-3-yl)-N-(2-methoxypyridin-4-yl)-2-oxoacetamide], the IC50 was less than 100 nM.

In the case of `COc1cc(NC(=O)C(=O)c2c(C)n(Cc3ncc(Cl)cc3Cl)c3ccc(C)cc23)ccn1` [Compound 30, 2-(1-((3,5-dichloropyridin-2-yl)methyl)-2,5-dimethyl-1H-indol-3-yl)-N-(2-methoxypyridin-4-yl)-2-oxoacetamide], the IC50 was less than 100 nM.

Turning to `COc1cc(NC(=O)C(=O)c2c(C)n(Cc3ncc(Cl)cc3Cl)c3ccccc23)ccn1` [Compound 31, 2-(1-((3,5-dichloropyridin-2-yl)methyl)-2-methyl-1H-indol-3-yl)-N-(2-methoxypyridin-4-yl)-2-oxoacetamide], the IC50 is less than 100 nM.

As to `COc1ccc(Cn2c(C)c(C(=O)C(=O)Nc3ccnc(OC)c3)c3cc(OC)c(F)cc32)nc1` [Compound 32, 2-(6-fluoro-5-methoxy-1-((5-methoxypyridin-2-yl)methyl)-2-methyl-1H-indol-3-yl)-N-(2-methoxypyridin-4-yl)-2-oxoacetamide], the IC50 was less than 100 nM.

Consider `COc1cc(NC(=O)C(=O)c2c(C)n(Cc3ncc(Cl)cc3F)c3ccc(C)cc23)ccn1` [Compound 33, 2-(1-((5-chloro-3-fluoropyridin-2-yl)methyl)-2,5-dimethyl-1H-indol-3-yl)-N-(2-methoxypyridin-4-yl)-2-oxoacetamide], for which the half-inhibitory concentration (IC50) was less than 100 nM.

With `COc1cnc2c(c1)c(C(=O)C(=O)Nc1ccnc(OC)c1)c(C)n2Cc1ncc(Cl)cc1F` [Compound 34, 2-(1-((5-chloro-3-fluoropyridin-2-yl)methyl)-5-methoxy-2-methyl-1H-pyrrolo[2,3-b]pyridin-3-yl)-N-(2-methoxypyridin-4-yl)-2-oxoacetamide], the IC50 is less than 100 nM.

On to `COc1cc(NC(=O)C(=O)c2c(C)n(Cc3ccc(Cl)cc3)c3cnccc23)ccn1` [Compound 35, 2-(1-(4-chlorobenzyl)-2-methyl-1H-pyrrolo[2,3-c]pyridin-3-yl)-N-(2-methoxypyridin-4-yl)-2-oxoacetamide], for which the IC50 fell in the range of 100 to 1000 nM.

Take `COc1cc(NC(=O)C(=O)c2c(C)n(Cc3ccc(Cl)cc3)c3ccc(OC)nc23)ccn1` [Compound 36, 2-(1-(4-chlorobenzyl)-5-methoxy-2-methyl-1H-pyrrolo[3,2-b]pyridin-3-yl)-N-(2-methoxypyridin-4-yl)-2-oxoacetamide]: the IC50 is less than 100 nM.

Take `COc1cc(NC(=O)C(=O)c2c(C)n(Cc3ccc(Cl)cc3)c3ccncc23)ccn1` [Compound 37, 2-(1-(4-chlorobenzyl)-2-methyl-1H-pyrrolo[3,2-c]pyridin-3-yl)-N-(2-methoxypyridin-4-yl)-2-oxoacetamide]: the 50% inhibitory concentration (IC50) was less than 100 nM.

Turning to `COc1cnc2c(c1)c(C(=O)C(=O)Nc1ccnc(OC)c1)c(C)n2Cc1ccc(Cl)cc1` [Compound 38, 2-(1-(4-chlorobenzyl)-5-methoxy-2-methyl-1H-pyrrolo[2,3-b]pyridin-3-yl)-N-(2-methoxypyridin-4-yl)-2-oxoacetamide], the half-maximal inhibitory concentration (IC50) is less than 100 nM.

Turning to `COc1ccc2c(c1)c(C(=O)C(=O)Nc1ccnc(OC)c1)c(C)n2Cc1ccc(S(C)(=O)=O)cc1` [Compound 39, 2-(5-methoxy-2-methyl-1-(4-(methylsulfonyl)benzyl)-1H-indol-3-yl)-N-(2-methoxypyridin-4-yl)-2-oxoacetamide], the IC50 was in the range of 1000 to 10000 nM.

Regarding `COc1ccc(Cn2c(C)c(C(=O)C(=O)Nc3ccnc(OC)c3)c3cc(OC)cnc32)nc1` [Compound 40, 2-(5-methoxy-1-((5-methoxypyridin-2-yl)methyl)-2-methyl-1H-pyrrolo[2,3-b]pyridin-3-yl)-N-(2-methoxypyridin-4-yl)-2-oxoacetamide], the IC50 is less than 100 nM.

As to `COc1cnc2c(c1)c(C(=O)C(=O)Nc1ccnc(OC)c1)c(C)n2Cc1ccc(Cl)cn1` [Compound 41, 2-(1-((5-chloropyridin-2-yl)methyl)-5-methoxy-2-methyl-1H-pyrrolo[2,3-b]pyridin-3-yl)-N-(2-methoxypyridin-4-yl)-2-oxoacetamide], the IC50 was less than 100 nM.

Regarding `COc1cnc2c(c1)c(C(=O)C(=O)Nc1ccnc(OC)c1)c(C)n2Cc1ccc(Cl)cc1Cl` [Compound 42, 2-(1-(2,4-dichlorobenzyl)-5-methoxy-2-methyl-1H-pyrrolo[2,3-b]pyridin-3-yl)-N-(2-methoxypyridin-4-yl)-2-oxoacetamide], the IC50 is less than 100 nM.

Consider `COc1ccc(Cn2c(C)c(C(=O)C(=O)Nc3ccnc(OC)c3)c3cc(OC)ccc32)nc1` [Compound 43, 2-(5-methoxy-1-((5-methoxypyridin-2-yl)methyl)-2-methyl-1H-indol-3-yl)-N-(2-methoxypyridin-4-yl)-2-oxoacetamide], for which the IC50 is less than 100 nM.

For `COc1cc(NC(=O)C(=O)c2c(C)n(Cc3ccc(Cl)cc3)c3cc(OC)c(OC)cc23)ccn1` [Compound 44, 2-(1-(4-chlorobenzyl)-5,6-dimethoxy-2-methyl-1H-indol-3-yl)-N-(2-methoxypyridin-4-yl)-2-oxoacetamide], the half-maximal inhibitory concentration (IC50) was less than 100 nM.

Broadly, the IC50 is the midpoint of a concentration-inhibition curve.
